The record followed here is patent US20080108511A1, “GENES AND GENE PRODUCTS […] EXPRESSED DURING HEART FAILURE” (priority 2006, published 2008).

The test system of this series is turkey poults. Particulars: in vivo. The source says:
The values shown in Table 4 are the average values±the standard error. The values in parentheses indicate the number of hearts. CK is creatine kinase, LDH is lactate dehydrogenase, and AST is aspartate transaminase. Ca^2+-ATPase activity was normalized per gram of protein. * represents p<0.05.

Marks after values point to notes of the source that are not given here.

Consider `O=C1OCCN1/N=C/c1ccc([N+](=O)[O-])o1` [Fz, furazolidone], for which the ATP synthase is recorded as 87 ± 4* (4) IU/g, the LDH is 219 ± 12* (9) IU/g, the Myoglobin is reported as 27.2 ± 3.1* (5) μg/g and the “SR Ca2+ cycling: Ca2+-ATPase” value is on record as 3.4 ± 0.6* (4) IU/g. Also, the “SR Ca2+ cycling: Ca2+-ATPase pump” value is 24.4 ± 6.3* (9) nM/s, the “Total ATPase” value is 16.8 ± 0.9* (4) IU/g, the Total protein is reported as 111 ± 3.0* (8) mg/g and the myofibrillar protein content stood at 34.6 ± 2.5 mg/g.
